Laboratory results: patent publication US20250000910A1, “Methods of Improving Therapeutic Efficacy of Mesenchymal Stromal Cells for Treatment of Osteoarthritis” (Georgia Tech Research Corporation, priority 2021, published 2025)
“Also recorded” adds a separate entry of the source.

Tests used:
Type in all cases: cell-based, human
p-Akt = assay: hMSC intracellular signaling analysis, Akt/mTOR phosphoprotein 11-plex
Excerpt: Millipore Corporation) system.

[1] = tested on: more therapeutic hMSCs (donors M1 and M2); assay: Cytokine secretion of more therapeutic hMSCs after pharmacological intervention (Luminex 41 Plex, PLSDA); details: for overall paracrine (cytokine) signaling response / secretion of therapeutic related cytokines (GM-CSF, GRO, IL-4, PDGF-AA): donors M1 and M2, +IL-1β 24 hr, vs CTRL
Protocol: (§1) Loaded samples (2.03 μL) were determined to be within the linear range of detection of the […] Millipore Corporation) system. Cytokines were quantified using a bead based multiplex immunoassay, Luminex Cytokine/Chemokine 41 Plex Immunomodulatory Kit ([…] Millipore Corporation). […] PLSDA was performed in MATLAB (Mathworks) using a function written by Cleiton Nunes (Mathworks File Exchange). This approach accounts for the multivariate nature of the data without overfitting. Prior to inputting the data into the algorithm, all data was z-scored [(observed-mean)/SD]. Intracellular signaling phospho-proteins and cytokine media read outs were used as the independent variables and the different hMSC donor's treatment conditions were used as the outcome variables. LVs in a multidimensional space (dimensionality varied by number of independent input variables) were defined and the two primary LVs were used for orthogonal rotation to best separate groups in the new plane defined by LV1 and LV2 (FIGS. 5a-5c). • Statistical Analysis

[2] = tested on: less therapeutic hMSCs (donors L1 and L2); assay: Cytokine secretion of less therapeutic hMSCs after pharmacological intervention (Luminex 41 Plex, PLSDA); details: vs CTRL
Protocol: as §1

Row | Compound | overall paracrine (cytokine) signaling response [1] | secretion of therapeutic related cytokines (GM-CSF, GRO, IL-4, PDGF-AA) [1] | also measured
1 | CCOC(=O)C1=C(N)Oc2ccc(Cl)cc2C1C(C#N)C(=O)OCC (stereo not drawn) [SC79] | the greatest potentiation of paracrine signaling | no effect | p-Akt phospho-protein levels relative to CTRL (p-Akt; more therapeutic hMSC donor M2, combination SP600125 and SC79, +IL-1β): significantly (p<0.001) more p-Akt phospho-protein levels; also recorded: increased p-Akt signaling; secretion of nonspecific cytokines ([1]; donors M1 and M2, +IL-1β): potentiated secretion of nonspecific cytokines; shift of paracrine signaling profile (PLSDA) ([1]; donors M1 and M2, +IL-1β): clear qualitative shift in the paracrine signaling profiles
2 | NC1(c2ccc(-c3nc4ccn5c(=O)[nH]nc5c4cc3-c3ccccc3)cc2)CCC1 [MK-2206] |  |  | p-Akt phospho-protein levels relative to CTRL (p-Akt; less therapeutic hMSC donor L2, combination Metformin and MK-2206, +IL-1β): significantly (p<0.01) less p-Akt phospho-protein levels; also recorded: decreased p-Akt signaling; secretion of therapeutic related cytokines (GM-CSF, GRO, IL-4, PDGF-AA) ([2]; donors L1 and L2, +IL-1β 24 hr): no effect; secretion of nonspecific cytokines ([2]; donors L1 and L2, +IL-1β): distinct reductions in nonspecific cytokines
3 | C[S+]([O-])c1ccc(-c2nc(-c3ccncc3)c(-c3ccc(F)cc3)[nH]2)cc1 (stereo not drawn) [SB203580] |  | reduced cytokine secretion of the therapeutic related cytokines | 
4 | CO[C@H]1C[C@@H]2CC[C@@H](C)[C@@](O)(O2)C(=O)C(=O)N2CCCC[C@H]2C(=O)O[C@H]([C@H](C)C[C@@H]2CC[C@@H](O)[C@H](OC)C2)CC(=O)[C@H](C)/C=C(\C)[C@@H](O)[C@@H](OC)C(=O)[C@H](C)C[C@H](C)/C=C/C=C/C=C/1C [Rapamycin] |  | no effect | 
5 | Cc1cc(N2CCOCC2)cc2[nH]c(-c3c(NC[C@@H](O)c4cccc(Cl)c4)cc[nH]c3=O)nc12 [BMS-536924] | reduced overall paracrine signaling response | no effect | 
